Data from US10947213B1 (Merck Patent GmbH, priority 2015, dated 2021).

What follows are molecules tested against T1, TLR7/NFKb HEK cells (Homo sapiens, UniProt Q9NYK1) (assay: HEK Cell Assay (TLR7/NFKb reporter, Steady-Glo luciferase readout)). Details: 30 min compound preincubation, then R*48 agonist for 5 hours, read-out: Potency.
T1 construct: expressed in transfected cells; host or cells: HEK cells (TLR7/NFKb reporter line)
T1 sequence (Q9NYK1 27-1049): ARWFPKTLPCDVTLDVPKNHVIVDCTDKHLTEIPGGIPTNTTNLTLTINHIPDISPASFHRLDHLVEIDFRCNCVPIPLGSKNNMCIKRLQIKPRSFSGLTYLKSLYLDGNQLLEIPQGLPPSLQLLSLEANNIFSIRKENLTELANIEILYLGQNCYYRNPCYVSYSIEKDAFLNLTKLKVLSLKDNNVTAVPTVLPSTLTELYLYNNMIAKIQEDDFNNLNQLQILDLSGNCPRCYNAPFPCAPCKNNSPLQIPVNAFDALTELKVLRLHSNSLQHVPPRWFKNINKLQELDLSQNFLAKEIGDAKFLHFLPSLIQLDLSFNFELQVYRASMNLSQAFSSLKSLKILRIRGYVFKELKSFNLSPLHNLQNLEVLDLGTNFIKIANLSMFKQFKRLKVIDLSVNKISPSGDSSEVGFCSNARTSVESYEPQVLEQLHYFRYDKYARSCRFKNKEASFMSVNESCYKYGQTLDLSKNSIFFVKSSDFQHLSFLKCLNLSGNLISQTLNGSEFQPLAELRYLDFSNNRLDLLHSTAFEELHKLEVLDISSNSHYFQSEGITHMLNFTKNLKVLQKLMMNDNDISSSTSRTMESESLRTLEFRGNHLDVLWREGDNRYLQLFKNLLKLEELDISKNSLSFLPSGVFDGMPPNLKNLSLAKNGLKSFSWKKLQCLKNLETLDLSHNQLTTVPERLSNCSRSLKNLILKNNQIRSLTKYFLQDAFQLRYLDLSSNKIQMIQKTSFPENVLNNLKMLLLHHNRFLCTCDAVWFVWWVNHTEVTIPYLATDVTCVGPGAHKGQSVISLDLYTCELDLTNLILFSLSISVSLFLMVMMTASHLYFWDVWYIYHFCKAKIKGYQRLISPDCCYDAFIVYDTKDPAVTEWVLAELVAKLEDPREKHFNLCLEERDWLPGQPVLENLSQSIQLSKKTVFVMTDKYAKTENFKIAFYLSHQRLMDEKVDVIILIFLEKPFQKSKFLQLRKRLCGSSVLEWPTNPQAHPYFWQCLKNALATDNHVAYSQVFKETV
Type: cell-based
In short: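 Steady-Glo luminescence after 5 h stimulation with R*48 agonist, following 30 min compound preincubation. Assay run in HEK cells carrying a TLR7/NFKb luciferase reporter, plated at 5000 cells/well and grown 24 h at 37° C (10% CO2) before treatment.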

SMILES	IC50 [nM]
CC(=O)N[C@@H]1C[C@H](C)CN(c2ccc(C(F)(F)F)c3ncccc23)C1 [Compound 517, N-[(3R,5S)-5-Methyl-1-(8-trifluoromethyl-quinolin-5-yl)-piperidin-3-yl]-acetamide]	< 1000
C[C@@H]1CN(c2ccc(C#N)c3nccnc23)C[C@H](C(=O)NC2CCN(C)CC2)O1 [Compound 468, (2R,6R)-4-(8-cyanoquinoxalin-5-yl)-6-methyl-N-(1-methylpiperidin-4-yl)morpholine-2-carboxamide]	< 1000
CC(C(=O)N[C@@H]1C[C@H](C)CN(c2ccc(C(F)(F)F)c3nccnc23)C1)N1CC(N)C1 (single isomer, unassigned) [Compound 370]	< 1000
CC1CC(C(=O)NC2CCCN(C)C2)CN(c2ccc(C#N)c3nccnc23)C1 (stereo not drawn) [Compound 543, cis-1-(8-cyanoquinoxalin-5-yl)-5-methyl-N-(1-methyl-3-piperidyl) piperidine-3-carboxamide]	< 1000
CCN(CC)CCNC(=O)C1CCN(c2ccnc3nccnc23)CC1 [Compound 379]	1000 to 10000
N#Cc1ccc(N2CC(NC(=O)CC3(O)CCCCC3)CC(C(F)(F)F)C2)c2cccnc12 (racemic) [Compound 491]	< 1000
COc1ccc(N2C[C@@H](C)C[C@@H](NC(=O)CC(C)(C)C)C2)c2cccnc12 [Compound 189, N-[(3R,5S)-1-(8-methoxyquinolin-5-yl)-5-methylpiperidin-3-yl]-3,3-dimethylbutanamide]	1000 to 10000
C[C@H]1C[C@@H](NC2CCN(C)C2=O)CN(c2ccc(C(F)(F)F)c3ncccc23)C1 (single isomer, unassigned) [Compound 238]	< 1000
C[C@H]1C[C@@H](NC(=O)CC2CN(C)C2)CN(c2ccc(C#N)c3nccnc23)C1 [Compound 359, N-[(3R,5S)-1-(8-cyanoquinoxalin-5-yl)-5-methylpiperidin-3-yl]-2-(1-methylazetidin-3-yl)acetamide]	< 1000
O=C(CN1CCCCC1)NCC1CCN(c2ccnc3ccccc23)CC1 [Compound 8, 2-(Piperidin-1-yl)-N-((1-(quinolin-4-yl)piperidin-4-yl)methyl)acetamide]	1000 to 10000
C[C@H]1C[C@@H](NC(=O)Cn2cccn2)CN(c2ccc(C#N)c3nccnc23)C1 [Compound 169, N-[(3R,5S)-1-(8-cyanoquinoxalin-5-yl)-5-methylpiperidin-3-yl]-2-(1H-pyrazol-1-yl)acetamide]	< 1000
CC(C(=O)N[C@@H]1C[C@H](C)CN(c2ccc(C(F)(F)F)c3ncccc23)C1)N1CC(O)C1 (stereo partly drawn) [Compound 285, 2-(3-hydroxyazetidin-1-yl)-N-[(3R,5S)-5-methyl-1-[8-(trifluoromethyl)quinolin-5-yl]piperidin-3-yl]propanamide]	< 1000
O=C(CN1CCOCC1)NC1CN(c2ccc(C(F)(F)F)c3ncccc23)CC(F)(F)C1 (stereo not shown) [Compound 512, N-[5,5-Difluoro-1-(8-trifluoromethyl-quinolin-5-yl)-piperidin-3-yl]-2-morpholin-4-yl-acetamide]	1000 to 10000
C[C@H]1C[C@@H](NCC(=O)O)CN(c2ccc(C(F)(F)F)c3ncccc23)C1 [Compound 571, [(3R,5S)-5-Methyl-1-(8-trifluoromethyl-quinolin-5-yl)-piperidin-3-ylamino]-acetic acid]	1000 to 10000
CC(O)C(=O)N[C@@H]1C[C@H](C)CN(c2ccc(C#N)c3nccnc23)C1 (stereo partly drawn) [Compound 265, N-[(3R,5S)-1-(8-cyanoquinoxalin-5-yl)-5-methylpiperidin-3-yl]-2-hydroxypropanamide]	< 1000
N#Cc1ccc(N2CC(N)CC(C(F)(F)F)C2)c2nccnc12 (single isomer, unassigned) [Compound 83]	< 1000
C[C@H]1C[C@@H](NC(=O)[C@@H](N)Cc2cccnc2)CN(c2ccc(C#N)c3nccnc23)C1 [Compound 116, (2S)-2-amino-N-[(3R,5S)-1-(8-cyanoquinoxalin-5-yl)-5-methylpiperidin-3-yl]-3-(pyridin-3-yl)propanamide]	< 1000

Continued, values first:

IC50 [nM]	SMILES
1000 to 10000	CN(C)CC(=O)NCC1CCN(c2ccnc3nccnc23)CC1 [Compound 394, 2-Dimethylamino-N-(1-pyrido[2,3-b]pyrazin-8-yl-piperidin-4-ylmethyl)-acetamide]
< 1000	C[C@H]1C[C@@H](NC(=O)CC2CCCN(C)C2)CN(c2ccc(C(F)(F)F)c3ncccc23)C1 (stereo partly drawn) [Compound 279, N-[(3R,5S)-5-methyl-1-[8-(trifluoromethyl)quinolin-5-yl]piperidin-3-yl]-2-(1-methylpiperidin-3-yl)acetamide]
< 1000	CCN(CC)CCNC(=O)C1CCN(c2ccc(C#N)c3nccnc23)CC1 [Compound 432, 1-(8-Cyano-quinoxalin-5-yl)-piperidine-4-carboxylic acid (2-diethylamino-ethyl)-amide]
> 10000	OC1CCC(NC2CC(C(F)(F)F)CN(c3ccnc4nccnc34)C2)CC1 (single isomer, unassigned) [Compound 94, trans,cis-4-((1-(pyrido[2,3-b]pyrazin-8-yl)-5-(trifluoromethyl)piperidin-3-yl)amino)cyclohexanol]
< 1000	CC(C(=O)N[C@@H]1C[C@H](C)CN(c2ccc(C(F)F)c3ncccc23)C1)N1CCC(O)CC1 (stereo partly drawn) [Compound 313, N-[(3R,5S)-1-[8-(difluoromethyl)quinolin-5-yl]-5-methylpiperidin-3-yl]-2-(4-hydroxypiperidin-1-yl)propanamide]
< 1000	C[C@H]1C[C@@H](NCC(N)=O)CN(c2ccc(C#N)c3nccnc23)C1 [Compound 122, 2-[[(3R,5S)-1-(8-cyanoquinoxalin-5-yl)-5-methylpiperidin-3-yl]amino]acetamide]
< 1000	C[C@H]1C[C@@H](NC(=O)CN2CC(N)C2)CN(c2ccc(C#N)c3nccnc23)C1 [Compound 356, 2-(3-aminoazetidin-1-yl)-N-[(3R,5S)-1-(8-cyanoquinoxalin-5-yl)-5-methylpiperidin-3-yl]acetamide]
> 10000	CC(C)(C)CC(=O)N[C@H]1C[C@@H](C(F)(F)F)CN(c2ccnc3nccnc23)C1 (relative stereo) [Compound 86, cis-3,3-dimethyl-N-[1-[pyrido[2,3-b]pyrazin-8-yl]-5-(trifluoromethyl)piperidin-3-yl]butanamide]
< 1000	COCCN[C@H]1CN(c2ccc(C#N)c3nccnc23)CC(C)(C)C1 [Compound 216, 8-[(5R)-5-[(2-methoxyethyl)amino]-3,3-dimethylpiperidin-1-yl]quinoxaline-5-carbonitrile]
< 1000	CCN(C)[C@@H](C)C(=O)N[C@@H]1C[C@H](C)CN(c2ccc(C#N)c3nccnc23)C1 [Compound 99, (2S)—N-[(3R,5S)-1-(8-cyanoquinoxalin-5-yl)-5-methylpiperidin-3-yl]-2-[ethyl(methyl)amino]propanamide]
> 10000	C[C@H]1C[C@@H](NC2CCOC2)CN(c2ccnc3nccnc23)C1 (stereo partly drawn) [Compound 139, (3R,5S)-5-methyl-N-(oxolan-3-yl)-1-[pyrido[2,3-b]pyrazin-8-yl]piperidin-3-amine]
< 1000	CN1CCC(CC(=O)NC2CN(c3ccc(C#N)c4nccnc34)CC(F)(F)C2)CC1 (single isomer, unassigned) [Compound 522]
< 1000	C[C@H]1C[C@@H](NC(=O)CC2CC2(F)F)CN(c2ccc(C(F)F)c3ncccc23)C1 (stereo partly drawn) [Compound 310, 2-(2,2-difluorocyclopropyl)-N-[(3R,5S)-1-[8-(difluoromethyl)quinolin-5-yl]-5-methylpiperidin-3-yl]acetamide]
1000 to 10000	C[C@H]1C[C@@H](NC(=O)C(N)C(F)(F)F)CN(c2ccc(C(F)F)c3ncccc23)C1 (single isomer, unassigned) [Compound 207]
< 1000	C[C@H]1C[C@@H](NC(=O)C(O)C2CC2)CN(c2ccc(C(F)(F)F)c3ncccc23)C1 (stereo partly drawn) [Compound 515, 2-Cyclopropyl-2-hydroxy-N-[(3R,5S)-5-methyl-1-(8-trifluoromethyl-quinolin-5-yl)-piperidin-3-yl]-acetamide]
< 1000	C[C@H]1C[C@@H](NC(=O)C2CCN(C)C2)CN(c2ccc(C(F)(F)F)c3nccnc23)C1 (stereo partly drawn) [Compound 258, 1-methyl-N-[(3R,5S)-5-methyl-1-[8-(trifluoromethyl)quinoxalin-5-yl]piperidin-3-yl]pyrrolidine-3-carboxamide]
< 1000	CCC(C)CC(=O)N[C@@H]1C[C@H](C)CN(c2ccc(C#N)c3nccnc23)C1 (single isomer, unassigned) [Compound 151]
